How the values were obtained:
[1] = molecular target: T1, RyR2-R4496C mutant HEK293 cell line (Mus musculus, UniProt E9Q401, R4495C); conditions: previously reported; cited from earlier work
[2] = molecular target: T1, RyR2-R4496C mutant HEK293 cell line

T1 sequence (E9Q401 whole entry R4495C): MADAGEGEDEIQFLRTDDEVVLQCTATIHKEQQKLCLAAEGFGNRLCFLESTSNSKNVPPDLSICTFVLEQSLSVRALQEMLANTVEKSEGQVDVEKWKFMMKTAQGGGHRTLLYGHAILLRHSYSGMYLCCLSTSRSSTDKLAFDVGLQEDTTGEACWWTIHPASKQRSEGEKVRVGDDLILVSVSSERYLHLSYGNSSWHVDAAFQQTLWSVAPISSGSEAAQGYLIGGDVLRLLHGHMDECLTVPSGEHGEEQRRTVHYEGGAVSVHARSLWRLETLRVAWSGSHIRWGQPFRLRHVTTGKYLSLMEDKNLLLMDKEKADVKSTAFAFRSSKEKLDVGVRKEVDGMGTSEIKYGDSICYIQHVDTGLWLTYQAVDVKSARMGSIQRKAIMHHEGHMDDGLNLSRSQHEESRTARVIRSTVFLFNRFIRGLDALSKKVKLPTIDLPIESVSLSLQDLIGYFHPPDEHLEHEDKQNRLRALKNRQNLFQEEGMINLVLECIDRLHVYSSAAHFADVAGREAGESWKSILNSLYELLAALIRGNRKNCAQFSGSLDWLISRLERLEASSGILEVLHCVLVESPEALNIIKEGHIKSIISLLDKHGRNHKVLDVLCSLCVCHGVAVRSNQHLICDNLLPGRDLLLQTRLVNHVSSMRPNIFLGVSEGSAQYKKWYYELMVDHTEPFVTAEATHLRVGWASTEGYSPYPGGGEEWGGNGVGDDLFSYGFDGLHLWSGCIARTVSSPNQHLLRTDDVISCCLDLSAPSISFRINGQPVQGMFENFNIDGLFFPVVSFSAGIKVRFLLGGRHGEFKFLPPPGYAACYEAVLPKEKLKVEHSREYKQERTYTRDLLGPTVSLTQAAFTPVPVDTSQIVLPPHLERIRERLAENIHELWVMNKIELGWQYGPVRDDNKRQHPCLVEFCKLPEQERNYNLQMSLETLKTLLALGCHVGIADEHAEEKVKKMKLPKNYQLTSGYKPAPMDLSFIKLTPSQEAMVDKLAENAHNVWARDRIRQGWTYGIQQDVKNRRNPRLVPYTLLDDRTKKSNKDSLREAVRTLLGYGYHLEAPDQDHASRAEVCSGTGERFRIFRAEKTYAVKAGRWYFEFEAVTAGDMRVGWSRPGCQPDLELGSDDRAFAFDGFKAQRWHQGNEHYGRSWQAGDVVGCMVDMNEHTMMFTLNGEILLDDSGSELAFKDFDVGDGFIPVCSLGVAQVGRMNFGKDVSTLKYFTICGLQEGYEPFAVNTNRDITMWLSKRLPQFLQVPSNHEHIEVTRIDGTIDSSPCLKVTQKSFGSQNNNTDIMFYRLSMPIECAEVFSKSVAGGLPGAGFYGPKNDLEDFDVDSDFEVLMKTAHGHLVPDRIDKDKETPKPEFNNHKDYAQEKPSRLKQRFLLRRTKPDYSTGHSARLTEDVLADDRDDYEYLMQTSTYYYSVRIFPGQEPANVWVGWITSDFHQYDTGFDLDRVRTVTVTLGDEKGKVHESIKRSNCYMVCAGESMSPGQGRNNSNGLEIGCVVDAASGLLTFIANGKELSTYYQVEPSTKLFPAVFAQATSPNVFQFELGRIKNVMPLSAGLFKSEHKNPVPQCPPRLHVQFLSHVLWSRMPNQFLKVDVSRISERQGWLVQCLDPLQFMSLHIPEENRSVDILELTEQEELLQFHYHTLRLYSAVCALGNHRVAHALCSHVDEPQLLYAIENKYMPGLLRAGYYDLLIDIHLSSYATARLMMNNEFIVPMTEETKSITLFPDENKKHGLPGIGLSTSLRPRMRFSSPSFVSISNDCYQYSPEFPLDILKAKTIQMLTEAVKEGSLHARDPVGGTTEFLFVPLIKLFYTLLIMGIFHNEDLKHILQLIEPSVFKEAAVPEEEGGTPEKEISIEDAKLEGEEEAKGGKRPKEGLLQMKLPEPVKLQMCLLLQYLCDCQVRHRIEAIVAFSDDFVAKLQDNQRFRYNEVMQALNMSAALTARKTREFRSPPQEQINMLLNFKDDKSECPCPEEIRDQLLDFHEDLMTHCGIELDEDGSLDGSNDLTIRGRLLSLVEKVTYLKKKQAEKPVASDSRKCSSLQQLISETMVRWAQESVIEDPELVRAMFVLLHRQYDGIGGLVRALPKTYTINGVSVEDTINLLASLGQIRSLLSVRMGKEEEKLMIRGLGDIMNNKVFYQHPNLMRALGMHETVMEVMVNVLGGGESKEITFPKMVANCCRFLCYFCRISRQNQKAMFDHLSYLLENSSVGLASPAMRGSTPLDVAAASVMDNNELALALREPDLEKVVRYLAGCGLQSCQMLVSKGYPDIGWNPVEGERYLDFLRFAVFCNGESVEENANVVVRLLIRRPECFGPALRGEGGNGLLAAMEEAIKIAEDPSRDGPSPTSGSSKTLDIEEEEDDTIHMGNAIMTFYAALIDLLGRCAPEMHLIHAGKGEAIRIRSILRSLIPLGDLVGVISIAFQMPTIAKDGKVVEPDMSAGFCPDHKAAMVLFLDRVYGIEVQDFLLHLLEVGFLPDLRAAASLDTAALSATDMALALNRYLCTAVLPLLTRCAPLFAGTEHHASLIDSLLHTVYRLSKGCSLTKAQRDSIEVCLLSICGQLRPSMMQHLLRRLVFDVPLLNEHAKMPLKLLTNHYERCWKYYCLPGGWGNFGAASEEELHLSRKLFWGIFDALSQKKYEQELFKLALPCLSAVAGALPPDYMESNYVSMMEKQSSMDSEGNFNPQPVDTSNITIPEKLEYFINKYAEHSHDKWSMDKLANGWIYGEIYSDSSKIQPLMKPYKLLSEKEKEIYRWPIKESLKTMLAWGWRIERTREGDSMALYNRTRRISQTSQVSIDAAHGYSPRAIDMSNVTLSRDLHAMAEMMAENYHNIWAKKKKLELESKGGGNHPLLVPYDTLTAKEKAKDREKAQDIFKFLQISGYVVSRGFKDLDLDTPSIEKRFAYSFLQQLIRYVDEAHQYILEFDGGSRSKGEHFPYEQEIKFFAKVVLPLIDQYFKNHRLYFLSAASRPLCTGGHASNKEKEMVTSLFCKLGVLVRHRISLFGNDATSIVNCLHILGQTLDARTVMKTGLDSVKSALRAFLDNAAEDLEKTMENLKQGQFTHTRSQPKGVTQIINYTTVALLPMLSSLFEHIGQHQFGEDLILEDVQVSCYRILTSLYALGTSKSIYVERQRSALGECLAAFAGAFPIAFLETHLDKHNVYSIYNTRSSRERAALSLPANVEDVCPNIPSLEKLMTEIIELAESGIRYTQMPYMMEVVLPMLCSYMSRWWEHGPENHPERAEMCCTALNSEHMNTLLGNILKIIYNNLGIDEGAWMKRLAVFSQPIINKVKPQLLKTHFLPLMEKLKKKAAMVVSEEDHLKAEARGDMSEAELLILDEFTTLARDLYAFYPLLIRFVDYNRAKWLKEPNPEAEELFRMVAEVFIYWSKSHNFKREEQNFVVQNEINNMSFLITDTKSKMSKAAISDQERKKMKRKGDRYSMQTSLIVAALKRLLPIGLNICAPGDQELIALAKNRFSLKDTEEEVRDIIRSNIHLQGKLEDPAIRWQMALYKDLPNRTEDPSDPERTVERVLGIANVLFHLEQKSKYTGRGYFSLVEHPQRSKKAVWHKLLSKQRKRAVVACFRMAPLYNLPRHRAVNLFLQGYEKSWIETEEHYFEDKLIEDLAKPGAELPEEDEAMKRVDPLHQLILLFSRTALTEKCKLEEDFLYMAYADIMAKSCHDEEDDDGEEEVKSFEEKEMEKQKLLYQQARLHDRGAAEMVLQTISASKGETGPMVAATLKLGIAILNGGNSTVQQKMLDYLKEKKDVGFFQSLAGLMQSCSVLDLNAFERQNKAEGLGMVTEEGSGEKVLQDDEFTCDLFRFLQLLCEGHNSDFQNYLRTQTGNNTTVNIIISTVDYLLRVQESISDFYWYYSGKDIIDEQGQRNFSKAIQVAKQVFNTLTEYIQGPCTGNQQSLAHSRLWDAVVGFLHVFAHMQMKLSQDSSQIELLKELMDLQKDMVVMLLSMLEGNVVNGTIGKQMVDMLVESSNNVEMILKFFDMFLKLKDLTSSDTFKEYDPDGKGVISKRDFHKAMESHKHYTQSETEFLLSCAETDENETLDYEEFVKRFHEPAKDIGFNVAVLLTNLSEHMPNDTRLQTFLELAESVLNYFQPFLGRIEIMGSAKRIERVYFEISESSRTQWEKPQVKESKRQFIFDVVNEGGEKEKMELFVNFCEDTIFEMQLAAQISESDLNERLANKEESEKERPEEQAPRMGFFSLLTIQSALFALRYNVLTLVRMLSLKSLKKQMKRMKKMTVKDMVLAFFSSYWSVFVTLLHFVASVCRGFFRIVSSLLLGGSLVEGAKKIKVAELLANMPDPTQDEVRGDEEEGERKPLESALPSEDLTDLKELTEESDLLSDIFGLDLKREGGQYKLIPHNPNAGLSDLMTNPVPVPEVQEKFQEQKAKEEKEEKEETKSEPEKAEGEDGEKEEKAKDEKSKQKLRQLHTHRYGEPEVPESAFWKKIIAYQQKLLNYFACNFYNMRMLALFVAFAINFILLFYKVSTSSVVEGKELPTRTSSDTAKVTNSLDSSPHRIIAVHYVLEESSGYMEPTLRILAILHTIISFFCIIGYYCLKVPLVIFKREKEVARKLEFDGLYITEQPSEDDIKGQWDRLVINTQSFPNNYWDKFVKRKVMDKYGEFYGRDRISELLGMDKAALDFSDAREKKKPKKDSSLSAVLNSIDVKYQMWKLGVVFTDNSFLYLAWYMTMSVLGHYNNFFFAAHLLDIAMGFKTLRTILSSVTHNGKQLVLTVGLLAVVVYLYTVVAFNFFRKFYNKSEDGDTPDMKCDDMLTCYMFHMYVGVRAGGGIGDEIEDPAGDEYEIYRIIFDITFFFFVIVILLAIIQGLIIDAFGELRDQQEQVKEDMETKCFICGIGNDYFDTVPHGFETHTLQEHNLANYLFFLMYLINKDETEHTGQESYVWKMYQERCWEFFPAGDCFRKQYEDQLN

COc1ccccc1OCCNCC(O)COc1cccc2[nH]c3ccccc3c12 (stereo not drawn) [carvedilol 1, carvedilol]
ability to inhibit SOICR [1]: ca. 10 μmolar

COc1ccccc1OCCN1CCC(COc2cccc3[nH]c4ccccc4c23)OCC1=O (stereo not drawn) [compound 35, 7-[(9H-carbazol-4-yloxy)methyl]-4-[2-(2-methoxyphenoxy)ethyl]-1,4-oxazepan-3-one]
decrease of SOICR-inhibiting activity on lactamization of 34 ([2]; relative to 34): more than 6 fold

COc1ccccc1OCCNCC(O)COc1ccc2c(c1)Nc1ccccc1S2(=O)=O (stereo not drawn) [compound 67, 2-(2-Hydroxy-3-{[2-(2-methoxyphenoxy)ethyl]amino}propoxy)-10H-5λ6,10-phenothiazine-5,5-dione]
decrease of SOICR-inhibiting activity on oxidation of 66 to the sulfone ([2]; relative to 66): more than 10 fold

— PMC3896386 (Journal of medicinal chemistry, 2013)
